Assay results reported in publication PMC9684580, “The BDSF quorum sensing receptor RpfR regulates Bep exopolysaccharide synthesis in Burkholderia cenocepacia via interaction with the transcriptional regulator BerB” (NPJ Biofilms and Microbiomes, 2022).

What was measured:
[1] = molecular target: T1, RpfR (Burkholderia cenocepacia, UniProt B4EKM4); test: DGC assay, products by anion-exchange FPLC (ResourceQ); assay type: biochemical; conditions: 2 uM enzyme, 100 uM substrate, 50 mM Tris-Cl pH 7.8, 500 mM NaCl, 2 mM MgCl2, 37 °C, 180 min; product pGpG
T1 construct: gene BCAM0580; full-length rpfR in pQE-32 (BamHI/HindIII; vector with N-terminal His tag), expressed in E. coli M15[pREP4], purified

[2] = molecular target: T1, RpfR; test: PDE assay, products by anion-exchange FPLC (ResourceQ); assay type: biochemical; conditions: 2 uM enzyme, 100 uM substrate, 50 mM Tris-Cl pH 7.8, 500 mM NaCl, 2 mM MgCl2, 37 °C, 180 min; product pGpG

T1 sequence (B4EKM4 entry or part of it): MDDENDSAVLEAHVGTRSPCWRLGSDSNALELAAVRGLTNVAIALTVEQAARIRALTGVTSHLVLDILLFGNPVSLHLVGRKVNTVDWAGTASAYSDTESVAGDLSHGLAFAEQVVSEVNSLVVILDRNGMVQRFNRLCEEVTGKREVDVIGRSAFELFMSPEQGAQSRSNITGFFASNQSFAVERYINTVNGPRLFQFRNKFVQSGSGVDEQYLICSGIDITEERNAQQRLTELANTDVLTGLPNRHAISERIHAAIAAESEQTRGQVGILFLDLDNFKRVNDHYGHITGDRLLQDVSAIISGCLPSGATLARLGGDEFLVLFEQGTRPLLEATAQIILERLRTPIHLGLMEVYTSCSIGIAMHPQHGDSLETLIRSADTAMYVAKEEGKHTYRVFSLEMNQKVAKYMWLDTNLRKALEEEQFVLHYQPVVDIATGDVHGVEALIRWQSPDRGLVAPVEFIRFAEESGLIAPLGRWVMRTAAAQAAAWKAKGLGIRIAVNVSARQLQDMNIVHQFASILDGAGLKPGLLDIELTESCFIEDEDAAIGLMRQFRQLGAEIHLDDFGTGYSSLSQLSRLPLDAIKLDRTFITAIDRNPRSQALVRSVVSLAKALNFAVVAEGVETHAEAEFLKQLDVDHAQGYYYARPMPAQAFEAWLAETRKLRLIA

Compound | DGC assay, products by anion-exchange FPLC (ResourceQ) [1] | PDE assay, products by anion-exchange FPLC (ResourceQ) [2]
Nc1nc2c(ncn2[C@@H]2O[C@H](COP(=O)(O)OP(=O)(O)OP(=O)(O)O)[C@@H](O)[C@H]2O)c(=O)[nH]1 [GTP] | Wild-type RpfR metabolized GTP as well as c-di-GMP, generating pGpG from both substrates | –
Nc1nc2c(ncn2[C@@H]2O[C@@H]3COP(=O)(O)O[C@H]4[C@@H](O)[C@H](n5cnc6c(=O)[nH]c(N)nc65)O[C@@H]4COP(=O)(O)O[C@H]3[C@H]2O)c(=O)[nH]1 [c-di-GMP] | – | Wild-type RpfR metabolized GTP as well as c-di-GMP, generating pGpG from both substrates
